The structures appear in SMILES notation.

Holding throughout (assay type): in vivo
Data set [1] has as its system Plasmopara viticola. As to the kind of experiment: Test on fungicidal effect on downy mildew of grape. The note with it: sprayed on grape seedlings. From the text:
Sandy soil was filled in plastic pots, and seeds of grape (variety: Neomuscat) were sown, and grown for about 1 month in a greenhouse to obtain young seedlings of grape in the 2-3 leaf stage. A water dilution of an emulsifiable concentrate of a wettable powder of each of the test compounds was sprayed onto the leaves of these seedlings so that the chemical adhered fully to the surfaces of the leaves. After drying the chemical in air, a suspension of conidospores of a […] pathogen of grape (Plasmopara viticola) was inoculated in the seedling by spraying. The seedlings were placed for 2 days in a high humidity condition at 23° C., and subsequently cultivated for 14 days in a greenhouse kept at 20° to 25° C. to cause onset of the disease. Thereafter, the state of the disease was observed.
The degree of disease was calculated by the following method. The examined leaves were classified by indices of 0, 0.5, 1, 2 and 4 according to the degrees of appearance of lesions, and the degree of disease was calculated from the following equation.
0: No fungus colony or lesion was noted on the surface of the leaves.
The control index was calculated from the following equation. [formula]

Data set [2] deals with Culex pipiens. As to the kind of experiment: Test on insecticidal effect on Culex pipiens. The conditions noted are these: 3.5 ppm, wettable powder of Formulation Example 5 (contains Fenitrothion); for Death rate: final-instar larvae, next day, 1440 min; for Emergence inhibition rate: when all larvae in non-treated area emerged. The protocol:
A wettable powder of each of compounds Nos. 2, 7, 8, 11, 13, 14, 17, 18 and 31 obtained in accordance with Formulation Example 5 was diluted with water to 3.5 ppm. One hundred milliliters of the dilution was put in each of 180 ml. polyethylene cups and 20 final-instar larvae of Culex pipiens were released into the cup. On the next day, the larvae were examined for mortality.
Thereafter, feeds were added to the test areas, and when all larvae n the non-treated area emerged, the emergence inhibition rate was examined.
The death rate and the emergence inhibition rate were rated by three grades as follows: […]

Data set [3] relates to marine animals and plants. As to the kind of experiment: Test on antifouling effects on marine animals and plants in the sea. The note with it: Owase Bay; for Fouled state, period of submerging 4 months / Fouled state, period of submerging 8 months / Fouled state, period of submerging 12 months: antifouling paint on vinyl chloride plate. The protocol:
A ship bottom antifouling paint was prepared by adding 24 g of Rosin WW, 12 g of a vinyl copolymer, 4 g of tricresyl phosphate, 10 g of bentonite, 20 g of baryta, 20 g of red iron oxide, 35 g of xylene and 35 g of methyl isobutyl ketone to 40 g of each of compounds Nos. 2, 8, 14, 17, 20 and 32 of the invention and vigorously stirring the mixture at room temperature for 1 hour. The paint was coated on both surfaces of a rigid vinyl chloride resin plate, 17×9×0.3 cm in size, to a dry thickness of about 200 microns. The coated plate was submerged in the sea in Owase Bay, Mie Prefecture, Japan for 12 months, and its fouled state was regularly observed.
The symbols in the table show the following.

Data set [4] relates to tobacco cutworms (Prodenia litura Fabrficius). In words: Test on insecticidal efficacy on tobacco cutworms. The conditions noted are these: 500 ppm in artificial feed, 4th-instar larvae, 6 days; wettable powder of Formulation Example 5 (contains Fenitrothion). The protocol:
A wettable powder of each of compounds Nos. 3, 7, 8, 9, 11, 12, 13, 14, 17, 18 and 31 of the invention obtained in accordance with Formulation Example 5 was diluted with water to 200 times (corresponding to a concentration of 500 ppm). Two milliliters of the dilution was impregnated in 13 g of an artificial feed for tobacco cutworms, and the feed was put in a polyethylene cup having a diameter of 11 cm. Ten 4th-instar larvae of tobacco cutworms were released into the cup, and examined for mortality 6 days later. The above experiment was carried out through two replicates.

For data set [5], the system named is carmine mites (Tetranychus telarius L.). In words: Miticidal effect on carmine mites. The note with it: 500 ppm active ingredient, spray plus soil, kidney beans, 8 days later. Also noted: key: -: Hardly any injury was observed.; +: Some injury was observed.; ++: The same injury as in the non-treated area was noted. The protocol: Female imagoes of carmine mites were caused to live at a rate of 10 per leaf on bineless kidney beans (in the primary leaf stage) in pots 7 days after sowing, and kept in a constant temperature chamber at 25° C. Six days later, a chemical obtained by diluting a wettable powder of each of compounds Nos. 4-6, 9-13, 15, 16, 21, 22, 25, 28-30, 33, 34, 36, 37 and 38 with water to an active ingredient concentration of 500 ppm was sprayed at a rate of 10 ml per pot, and at the same time, 2 ml of the chemical was poured into the soil. Eight days later, injuries to the plants by the mites were examined.
The degree of injury is shown by -, + and ++ as follows: […]

For the compound `c1cc[c]([Sn]([S]CCC[Si]23OCCN(CCO2)CCO3)([c]2ccccc2)[c]2ccccc2)cc1` [compound 1], the values for the Control index in data set [1] (12.5 ppm active ingredient), in data set [1] (50 ppm active ingredient) and in data set [1] (200 ppm active ingredient) were 97%, 100% and 100%, respectively.
In the case of `c1cc[c]([Sn]([S]CC[Si]23OCCN(CCO2)CCO3)([c]2ccccc2)[c]2ccccc2)cc1` [compound 2, 1-(2-triphenylstannylthioethyl)silatrane], in data set [2], the Death rate result is “B (less than 90% to 10%)” and the Emergence inhibition rate result was “A (90% or higher)”. For the same compound, in data set [3], the “Fouled state, period of submerging 4 months” value is listed as “.circle”; the “Fouled state, period of submerging 8 months” value is reported as “.circle”; the “Fouled state, period of submerging 12 months” value was “.circle”.
With `CC1CN2CC(C)O[Si](CC[S][Sn]([c]3ccccc3)([c]3ccccc3)[c]3ccccc3)(O1)OC(C)C2` (centres unmarked) [compound 3], the Control index in data set [1] (12.5 ppm active ingredient) is reported as 98%; in data set [1] (50 ppm active ingredient) it was 100%; in data set [1] (200 ppm active ingredient), 100%. Moreover, the Death rate in data set [4] was determined as 100%.
Regarding `CC(C)([CH2][Sn]([CH2]C(C)(C)c1ccccc1)([CH2]C(C)(C)c1ccccc1)[S]CCC[Si]12OCCN(CCO1)CCO2)c1ccccc1` [compound 4, 1-(3-trineophylstannylthiopropyl)silatrane], in data set [5], the Degree of injury result is “-”.
Same read-out and setting: with `CC(C)([CH2][Sn]([CH2]C(C)(C)c1ccccc1)([CH2]C(C)(C)c1ccccc1)[S]CC[Si]12OCCN(CCO1)CCO2)c1ccccc1` [compound 5] the entry was “-~+”; with `CC1CN2CC(C)O[Si](CC[S][Sn]([CH2]C(C)(C)c3ccccc3)([CH2]C(C)(C)c3ccccc3)[CH2]C(C)(C)c3ccccc3)(O1)OC(C)C2` (centres unmarked) [compound 6], “-~+”.
With `C1CC[CH]([Sn]([S]CC[Si]23OCCN(CCO2)CCO3)([CH]2CCCCC2)[CH]2CCCCC2)CC1` [compound 7], in data set [2], the Death rate result is given as “C (less than 10%)” and the Emergence inhibition rate result was “A (90% or higher)”. The same compound returned a Death rate in data set [4] of 100%.
Take `CC1CN2CC(C)O[Si](CCC[S][Sn]([c]3ccccc3)([c]3ccccc3)[c]3ccccc3)(O1)OC(C)C2` (centres unmarked) [compound 9, 1-(3-triphenylstannylthiopropyl)-3,7,10-trimethylsilatrane]: the figures for the Control index in data set [1] (12.5 ppm active ingredient), in data set [1] (50 ppm active ingredient) and in data set [1] (200 ppm active ingredient) were 98%, 100% and 100%, respectively. The same compound gave a Death rate in data set [4] of 100%. For the same compound, the Degree of injury entry in data set [5] is “-”.
For `CC1CN2CC(C)O[Si](CCC[S][Sn]([CH2]C(C)(C)c3ccccc3)([CH2]C(C)(C)c3ccccc3)[CH2]C(C)(C)c3ccccc3)(O1)OC(C)C2` (centres unmarked) [compound 10], the Degree of injury result in data set [5] is given as “-”.
In the case of `CC1CN2CC(C)O[Si](CCC[S][Sn]([CH]3CCCCC3)([CH]3CCCCC3)[CH]3CCCCC3)(O1)OC(C)C2` (centres unmarked) [compound 11], the Control index stood at 96% in data set [1] (12.5 ppm active ingredient), 100% in data set [1] (50 ppm active ingredient) and 100% in data set [1] (200 ppm active ingredient). Besides, the Death rate result in data set [2] is “B (less than 90% to 10%)”; in data set [4] it was 100%. Besides, in data set [2], the Emergence inhibition rate entry is reported as “A (90% or higher)”. Besides, the Degree of injury entry in data set [5] is on record as “-”.
On to `C1CC[CH]([Sn]([S]CCC[Si]23OCCN(CCO2)CCO3)([CH]2CCCCC2)[CH]2CCCCC2)CC1` [compound 13], for which, in data set [2], the Death rate result is reported as “A (90% or higher)” and the Emergence inhibition rate result is listed as “A (90% or higher)”. In data set [4], this compound returned a Death rate of 100%. In addition, the Degree of injury result in data set [5] is “-”.
On to `CCCCCCC[CH2][Sn]([CH2]CCCCCCC)([CH2]CCCCCCC)[S]CCC[Si]12OCCN(CCO1)CCO2` [compound 15], for which, in data set [5], the Degree of injury result was “-”.
As to `CCCCCCC[CH2][Sn]([CH2]CCCCCCC)([CH2]CCCCCCC)[S]CCC[Si]12OC(C)CN(CC(C)O1)CC(C)O2` (centres unmarked) [compound 16], the Degree of injury entry in data set [5] is “-”.
For the compound `CCC1CN2CCO[Si](CCC[S][Sn]([c]3ccccc3)([c]3ccccc3)[c]3ccccc3)(O1)OC(CC)C2` (centres unmarked) [compound 20], in data set [3], the “Fouled state, period of submerging 4 months” value is on record as “.circle”; the “Fouled state, period of submerging 8 months” value is given as “.circle”; the “Fouled state, period of submerging 12 months” value was “Δ (Marine animals and plants adhered to less than 5% of the area of the coated film)”. Further, the “Fouled by” value in data set [3] (antifouling paint, up to 12 months) is recorded as “Algae”.
For `CCC1CN2CCO[Si](CCC[S][Sn]([CH2]C(C)(C)c3ccccc3)([CH2]C(C)(C)c3ccccc3)[CH2]C(C)(C)c3ccccc3)(O1)OC(CC)C2` (centres unmarked) [compound 21], the Degree of injury entry in data set [5] is reported as “-”.
Still for that read-out and setting: to `CCC1CN2CCO[Si](CCC[S][Sn]([CH]3CCCCC3)([CH]3CCCCC3)[CH]3CCCCC3)(O1)OC(CC)C2` (centres unmarked) [compound 22] belongs “-~+”; to `CCC[CH2][Sn]([CH2]CCC)([CH2]CCC)[S]CCC[Si]12OCCN(CCO1)CC(CC)O2` (centres unmarked) [compound 25], “-~+”; to `CCC1CN2CCO[Si](CCC[S][Sn]([CH2]C(C)C)([CH2]C(C)C)[CH2]C(C)C)(O1)OC(CC)C2` (centres unmarked) [compound 28], “-”.
Same read-out and setting: with `CCCCCCC[CH2][Sn]([CH2]CCCCCCC)([CH2]CCCCCCC)[S]CCC[Si]12OCCN(CCO1)CCO2` [compound 29] the entry was “-~+”; with `CCCCCCC[CH2][Sn]([CH2]CCCCCCC)([CH2]CCCCCCC)[S]CCC[Si]12OC(C)CN(CC(C)O1)CC(C)O2` (centres unmarked) [compound 30], “-”.
As for `CCC1CN2CCO[Si](CCC[S][Sn]([c]3ccccc3)([c]3ccccc3)[c]3ccccc3)(OCC2)O1` (centres unmarked) [compound 31], the Death rate result in data set [2] was “B (less than 90% to 10%)”; in data set [4], 100%. In data set [2], the Emergence inhibition rate entry was “A (90% or higher)”.
In the case of `CCC1CN2CCO[Si](CCC[S][Sn]([CH2]C(C)(C)c3ccccc3)([CH2]C(C)(C)c3ccccc3)[CH2]C(C)(C)c3ccccc3)(OCC2)O1` (centres unmarked) [compound 33], the Degree of injury entry in data set [5] is “-”.
Consider `CCC1CN2CC(C)O[Si](CCC[S][Sn]([CH2]C(C)(C)c3ccccc3)([CH2]C(C)(C)c3ccccc3)[CH2]C(C)(C)c3ccccc3)(OC(C)C2)O1` (centres unmarked) [compound 34], for which the Degree of injury result in data set [5] was “-”.
Turning to `CCC1CN2CCO[Si](CCC[S][Sn]([CH]3CCCCC3)([CH]3CCCCC3)[CH]3CCCCC3)(OCC2)O1` (centres unmarked) [compound 36], the Degree of injury entry in data set [5] is on record as “-~+”.
The same measure, in the same setting: with `CCC1CN2CC(C)O[Si](CCC[S][Sn]([CH]3CCCCC3)([CH]3CCCCC3)[CH]3CCCCC3)(OC(C)C2)O1` (centres unmarked) [compound 37] the entry was “-”.
As to `CC(C)(C)[CH2][Sn]([CH2]C(C)(C)C)([CH2]C(C)(C)C)[S]CC[Si]12OCCN(CCO1)CCO2` [compound 38], the Degree of injury entry in data set [5] is on record as “-”.
For `CCO[PH](=O)O` [reference compound], in data set [1] (200 ppm active ingredient), the Control index was determined as 68%.
